Test results taken from patent US20030171377A1, “Antidiabetic agents” (priority 2001, published 2003).

Columns and labels:
3T3-L1 preadipocytes = test: 3T3-L1 Adipocyte Differentiation Assay (ADPDIFF), Test A; type: cell-based; conditions: BODIPY lipid fluorescence, reported as % of BRL 49653 at 5 μM
Protocol: Cells are replenished with FBS containing media on day 5 of post-drug treatment and incubated for additional 4-6 days. Cells are stained with BODIPY a fluorescent lipophilic stain to quantitate the lipid content of the cells. The assay is optimized for a 96-well plate format. Approximately after 10 days of post-drug treatment, cells are fixed in 3% formalin solution for 15 min followed by staining with BODIPY (80 μg/ml) for 20 min at room temperature. The plate is then put through the CYTOFLUOR instrument to measure the fluorescence of BODIPY (excitation=485/20; emission=530/25).

[1] = Blood Glucose Measurement (Glucose Δ), Test D; type: in vivo, mice; design: key to Glucose Δ: change in blood glucose, mg/dL; conditions: for Glucose Δ: 4 hours post dose, 4 hour fasted animals, tail vein whole blood; for % BRL (in vivo, beside Glucose Δ): glucose change relative to BRL
Protocol: Test D—Blood Glucose Measurement (Glucose Δ) Glucose is obtained 4 hours post dose via tail vein stick (5 μl whole blood) in awake, 4 hour fasted animals. Blood is drawn by capillary action into a glucose cuvette and read in a HemoCue Glucose Analyzer (Ryan Diagnostics). Blood is diluted 1:2 with saline if glucose levels are greater than 400 mg/dl (meter high range) and results multiplied by two.

[2] = tested on: endogenous nuclear receptors in CV-1 cells; test: CV-1 Native Receptors Transcription Assay (MKNRCV1), Test C; type: cell-based, African green monkey; conditions: for MKNRCV1 % BRL @ 25 μM: percent activity of BRL 49653; for EC50: Chlorocebus sabaeus, CV-1 cells, 48 hours, unit inferred
[3] = tested on: CV-1 cells (FATP promoter luciferase reporter, 300 nM BRL); test: ANTCV1 Antagonist Transcription Assay, Test B; type: cell-based, African green monkey; conditions: Chlorocebus sabaeus, 25 μM test compound with 300 nM BRL, 48 hrs, % BRL inhibition, read-out: ANTCV1 INHIB @ 25 μM

melting point | EC50 [2] | Compound | ADPDIFF % BRL @ 5 μM (3T3-L1 preadipocytes) | Glucose Δ [1] | % BRL (in vivo, beside Glucose Δ) [1] | MKNRCV1 % BRL @ 25 μM [2] | inhibition at 25 µM [3]
146 to 147 °C |  | Cc1oc(-c2ccccc2)nc1CCOc1ccc(C[C@@H](C(=O)O)c2cccs2)cc1 (stereo in doubt) (hydrate or solvate) [Example 32, 3-{4-[2-(5-Methyl-2-phenyl-oxazol-4-yl)-ethoxy]-phenyl}-2-thiophen-2-yl-propionic acid] |  |  |  |  | 
146 to 147 °C |  | Cc1oc(-c2ccccc2)nc1CCOc1ccc(C[C@@H](C(=O)O)n2ccc(-c3ccccc3)c2)cc1 [Example 4, (S)-3-{4-[2-(5-Methyl-2-phenyl-oxazol-4-yl)-ethoxy]-phenyl}-2-(3-phenyl-pyrrol-1-yl)-propionic acid] |  |  |  |  | 
 |  | Cc1oc(-c2ccccc2)nc1CCOc1ccc(CC(C(=O)O)n2cccc2)cc1 (stereo not shown) | 67 % BRL | −196.0 | 109.4 % BRL | 86 % BRL | 
 | 700 nM | O=C(O)[C@H](Cc1ccc(OCCSc2nc3ccccc3s2)cc1)n1cccc1 | 97 % BRL | 155.0 | −66.5 % BRL | 102 % BRL | -102%
 | 2200 nM | Cc1oc(-c2ccccc2)nc1CCOc1ccc(CC(C(=O)O)n2ccc(C(=O)c3ccccc3)c2)cc1 (stereo not shown) | 102 % BRL | −84.4 | 60.8 % BRL | 91 % BRL | -20%
 | 200 nM | Cc1oc(-c2ccccc2)nc1CCOc1ccc(CC(C(=O)O)c2ccc(C(F)(F)F)cc2)cc1 (stereo not shown) | 107 % BRL | 246.8 | −180.4 % BRL | 78 % BRL | -49%
 | 12900 nM | Cc1oc(-c2ccccc2)nc1CCOc1ccc(CC(C(=O)O)n2cccc2C(=O)c2ccccc2)cc1 (stereo not shown) | 33 % BRL | 108.6 | −50.3 % BRL | 46 % BRL | 
 |  | CCc1nnc([C@H](Cc2ccc(OCCc3nc(-c4ccccc4)oc3C)cc2)n2cccc2)o1 | 88 % BRL | 46.5 | −20.0 % BRL | 12 % BRL | 53.8%
 |  | CN(CCCc1ccc(C[C@@H](C(=O)O)n2cccc2)cc1)c1ccccc1 | 61 % BRL | 63.0 | −27.0 % BRL | 68 % BRL | 
 | 900 nM | Cc1oc(-c2ccccc2)nc1CCOc1ccc(C[C@@H](C(=O)O)n2ccc(-c3ccccc3)c2)cc1 [drawing 241] | 125 % BRL | −194.0 | 83.3 % BRL | 54 % BRL | 29%
 | 300 nM | Cc1oc(-c2ccccc2)nc1CCOc1ccc(CC(C(=O)O)c2ccccc2)cc1 (stereo not shown) | 94 % BRL | 49.2 | −35.5 % BRL | 109 % BRL | -48%
 | 2900 nM | CN(CC#Cc1ccc(C[C@@H](C(=O)O)n2cccc2)cc1)c1ccccc1 | 83 % BRL | 182.8 | −55.3 % BRL | 92 % BRL | -31%
 | 3600 nM | CC(=O)c1cccn1[C@@H](Cc1ccc(OCCc2nc(-c3ccccc3)oc2C)cc1)C(=O)O [drawing 230] | 89 % BRL | 12.4 | −5.1 % BRL | 60 % BRL | 20%
 |  | Cc1oc(-c2ccccc2)nc1CC#Cc1ccc(C[C@@H](C(=O)O)n2cccc2)cc1 | 100 % BRL | 62.0 | −45.3 % BRL | 94 % BRL | 
 | 1000 nM | CN(CCOc1ccc(CC(C(=O)O)c2ccccc2)cc1)c1nc2ccccc2o1.Cl (stereo not shown) | 109 % BRL | 172.0 | −52.0 % BRL | 91 % BRL | -45%
 | 400 nM | Cc1oc(-c2ccccc2)nc1CCOc1ccc(CC(C(=O)O)c2cccnc2)cc1.Cl (stereo not shown) | 132 % BRL | −72.5 | 31.1 % BRL | 58 % BRL | -112%
 | 1700 nM | Cc1oc(-c2ccccc2)nc1CCOc1ccc(C[C@@H](C(=O)O)n2cccc2C(=O)C(F)(F)F)cc1 [drawing 233] | 105 % BRL | −157.2 | 113.3 % BRL | 75 % BRL | -1%
 | 3200 nM | Cc1oc(-c2ccccc2)nc1CCOc1ccc(C[C@@H](C(=O)NS(C)(=O)=O)n2cccc2)cc1 | 110 % BRL |  |  | 97 % BRL | -30%

melting point | EC50 [2] | Compound | ADPDIFF % BRL @ 5 μM (3T3-L1 preadipocytes) | Glucose Δ [1] | % BRL (in vivo, beside Glucose Δ) [1] | MKNRCV1 % BRL @ 25 μM [2] | inhibition at 25 µM [3]
 |  | O=C(O)[C@H](Cc1ccc(OCCn2c(-c3ccccc3)nc3ccccc32)cc1)n1cccc1 | 19 % BRL |  |  | 39 % BRL | -69%
 | 10 nM | Cc1oc(-c2ccccc2)nc1CCOc1ccc(C[C@@H](C(=O)O)n2cccc2Cl)cc1 | 86 % BRL | 54.8 | −40.1 % BRL | 70 % BRL | -17.5%
 |  | CN(CCOc1ccc(CC(C(=O)O)n2ccc(-c3ccccc3)c2)cc1)c1nc2ccccc2o1 (stereo not shown) | 113 % BRL |  |  | 59 % BRL | -41%
 |  | Cc1oc(-c2ccccc2)nc1CCCc1ccc(C[C@@H](C(=O)O)n2cccc2)cc1 | 62 % BRL | −166.6 | 121.8 % BRL | 69 % BRL | 
 | 9200 nM | Cc1sc(-c2ccccc2)nc1CCOc1ccc(C[C@@H](C(=O)O)n2cccc2)cc1 [drawing 269] | 92 % BRL |  |  | 76 % BRL | -20%
 | 3300 nM | Cc1oc(-c2ccccc2)nc1CCOc1ccc(C[C@@H](C(=O)NS(=O)(=O)c2ccccc2)n2cccc2)cc1 | 90 % BRL |  |  | 101 % BRL | -117%
 |  | O=C(O)[C@H](Cc1ccc(OCCCc2ccncc2)cc1)n1cccc1 | 3 % BRL |  |  | 44 % BRL | 3%
 |  | Cc1oc(-c2ccccc2)nc1CCOc1ccc(C[C@@H](C(=O)O)n2c(C)ccc2C)cc1 | 26 % BRL |  |  | 11 % BRL | 80%
 |  | CC(=O)c1cccn1[C@@H](Cc1ccc(OCc2ccccc2F)cc1)C(=O)O | 3 % BRL |  |  | 25 % BRL | -40%
 |  | Cc1oc(-c2ccccc2)nc1CCOc1ccc(CC(C)(C)C(=O)O)cc1 [drawing 217] | 131 % BRL |  |  | 34 % BRL | 59%
 |  | Cc1oc(-c2ccccc2)nc1CCOc1ccc(CC(C(=O)O)c2ccncc2)cc1 (stereo not shown) | 2 % BRL |  |  | 20 % BRL | 55%
 | 9500 nM | Cc1oc(-c2ccccc2)nc1CCOc1ccc(CC(F)(C(=O)O)c2ccccc2)cc1 (stereo not shown) [drawing 216] | 122 % BRL |  |  | 63 % BRL | 37%
 |  | Cc1oc(-c2ccccc2)nc1CCOc1ccc(C[C@@H](C(=O)O)n2c(C)cc(Cl)c2C)cc1 | 28 % BRL |  |  | 55 % BRL | 5%
 |  | CCCc1nnc([C@H](Cc2ccc(OCCc3nc(-c4ccccc4)oc3C)cc2)n2cccc2)o1 | 94 % BRL |  |  | 0 % BRL | 84%
 | 150 nM | Cc1oc(-c2ccccc2)nc1CCOc1ccc(C[C@@H](C(=O)O)c2ccccc2)cc1 [drawing 252] | 95 % BRL | −58.8 | 17.8 % BRL | 106 % BRL | -104%
 | 11100 nM | CN(CCOc1ccc(CC(C(=O)O)n2ccc(C(=O)C3CCCCC3)c2)cc1)c1nc2ccccc2o1 (stereo not shown) | 112 % BRL |  |  | 65 % BRL | 4%
 |  | COC(=O)[C@H](Cc1ccc(/C=C/CN2CCC(c3ccccc3)CC2)cc1)n1cccc1 | 32 % BRL |  |  | 47 % BRL | 25%
 | 60 nM | Cc1oc(-c2ccccc2)nc1CCOc1ccc(C[C@@H](C(=O)O)n2ccc(Br)c2)cc1 | 84 % BRL |  |  | 85 % BRL | -57.5%
